Experimental data reported in patent US20240109917A1 (ACTELION PHARMACEUTICALS LTD, priority 2020, published 2024).

Each compound was assayed against VEGFR2, unphosphorylated (Homo sapiens (Human), UniProt P35968) (assay: VEGFR ADP GLO Assay).
Format: biochemical

VEGFR2, unphosphorylated, sequence (P35968 20-1356): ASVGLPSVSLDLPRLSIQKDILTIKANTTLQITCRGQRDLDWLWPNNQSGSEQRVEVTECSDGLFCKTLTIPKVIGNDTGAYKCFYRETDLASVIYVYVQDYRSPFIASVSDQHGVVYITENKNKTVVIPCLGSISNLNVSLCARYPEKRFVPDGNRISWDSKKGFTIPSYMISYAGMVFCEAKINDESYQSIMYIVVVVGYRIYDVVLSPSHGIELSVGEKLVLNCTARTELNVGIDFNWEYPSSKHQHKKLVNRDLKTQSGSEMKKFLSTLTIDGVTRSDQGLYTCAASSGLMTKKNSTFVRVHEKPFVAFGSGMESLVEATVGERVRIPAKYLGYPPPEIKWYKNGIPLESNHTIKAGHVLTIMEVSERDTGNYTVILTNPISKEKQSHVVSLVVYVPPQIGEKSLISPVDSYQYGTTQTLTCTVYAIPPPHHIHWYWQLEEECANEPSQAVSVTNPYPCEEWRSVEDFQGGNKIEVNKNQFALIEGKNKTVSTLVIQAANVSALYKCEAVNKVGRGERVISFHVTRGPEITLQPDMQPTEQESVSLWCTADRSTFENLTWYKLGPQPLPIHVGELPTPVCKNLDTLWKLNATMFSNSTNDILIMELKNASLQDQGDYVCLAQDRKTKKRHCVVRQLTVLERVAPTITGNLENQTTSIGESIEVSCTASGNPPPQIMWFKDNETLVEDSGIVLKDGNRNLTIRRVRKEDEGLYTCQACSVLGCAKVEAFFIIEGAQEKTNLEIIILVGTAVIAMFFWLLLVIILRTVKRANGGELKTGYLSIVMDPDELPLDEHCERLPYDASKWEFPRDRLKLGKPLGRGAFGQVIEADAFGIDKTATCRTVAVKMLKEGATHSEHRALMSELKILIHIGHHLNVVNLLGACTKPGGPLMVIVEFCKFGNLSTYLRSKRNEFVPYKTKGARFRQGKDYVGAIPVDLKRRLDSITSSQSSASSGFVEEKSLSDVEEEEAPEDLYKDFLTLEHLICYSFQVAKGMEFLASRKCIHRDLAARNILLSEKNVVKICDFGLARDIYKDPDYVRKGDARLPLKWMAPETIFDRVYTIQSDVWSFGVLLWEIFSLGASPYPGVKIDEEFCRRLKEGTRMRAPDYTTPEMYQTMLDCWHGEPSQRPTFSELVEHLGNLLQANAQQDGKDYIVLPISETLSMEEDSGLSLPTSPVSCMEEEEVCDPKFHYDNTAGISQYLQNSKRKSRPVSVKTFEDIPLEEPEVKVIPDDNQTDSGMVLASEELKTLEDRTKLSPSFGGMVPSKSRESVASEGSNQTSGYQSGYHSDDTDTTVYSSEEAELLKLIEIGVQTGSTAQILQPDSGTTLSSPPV

`Cc1ncc(NC(=O)CN2C[C@@H](C)O[C@H](C)C2)cc1NC(=O)c1cnn2cc(-c3cnn(CCS(C)(=O)=O)c3)sc12` (relative stereo) [Example 432, N-(5-(2-(trans-2,6-dimethylmorpholino)acetamido)-2-methylpyridin-3-yl)-2-(1-(2-(methylsulfonyl)ethyl)-1H-pyrazol-4-yl)pyrazolo[5,1-b]thiazole-7-carboxamide] and `Cc1ncc(NC(=O)CN2C[C@@H](C)O[C@H](C)C2)cc1NC(=O)c1cnn2cc(-c3cnn(C)c3C)sc12` (relative stereo) [Example 433, 2-(1,5-Dimethyl-1H-pyrazol-4-yl)-N-(5-(2-(trans-2,6-dimethylmorpholino)acetamido)-2-methylpyridin-3-yl)pyrazolo[5,1-b]thiazole-7-carboxamide] cannot be ordered by IC50: > 2.5 µM for the first, > 7.5 µM for the second.

`Cc1ncc(NC(=O)CN2CCCC[C@@H]2C)cc1NC(=O)c1cnn2cc(-c3cnn(CCO)c3)sc12` [Example 34, (S)-2-(1-(2-hydroxyethyl)-1H-pyrazol-4-yl)-N-(2-methyl-5-(2-(2-methyl-piperidin-1-yl)acetamido)pyridin-3-yl)pyrazolo[5,1-b]thiazole-7-carboxamide] and `COCCn1cc(-c2cn3ncc(C(=O)Nc4cc(NC(=O)CCN5CCCC5(C)C)cnc4C)c3s2)cn1` [Example 41, N-(5-(3-(2,2-dimethylpyrrolidin-1-yl)propanamido)-2-methylpyridin-3-yl)-2-(1-(2-methoxyethyl)-1H-pyrazol-4-yl)pyrazolo[5,1-b]thiazole-7-carboxamide] cannot be ordered by IC50: > 7.5 µM for the first, > 7.5 µM for the second.

`Cc1cc(C(=O)NCCN2CCCC23CCC3)sc1NC(=O)c1cnn2cc(-c3cnn(C)c3)sc12` [Example 35, N-(5-((2-(5-azaspiro[3.4]octan-5-yl)ethyl)carbamoyl)-3-methylthiophen-2-yl)-2-(1-methyl-1H-pyrazol-4-yl)pyrazolo[5,1-b]thiazole-7-carboxamide] and `Cc1cc(C(=O)NCCN2CCCC23CC3)sc1NC(=O)c1cnn2cc(-c3cnn(C)c3)sc12` [Example 37, N-(5-((2-(4-azaspiro[2.4]heptan-4-yl)ethyl)carbamoyl)-3-methylthiophen-2-yl)-2-(1-methyl-1H-pyrazol-4-yl)pyrazolo[5,1-b]thiazole-7-carboxamide] cannot be ordered by IC50: > 7.5 µM for the first, > 7.5 µM for the second.

`Cc1cc(C(=O)NCCN2CCCC2(C)C)sc1NC(=O)c1cnn2cc(-c3cccnc3)sc12` [Example 36, N-(5-((2-(2,2-dimethylpyrrolidin-1-yl)ethyl)carbamoyl)-3-methylthiophen-2-yl)-2-(pyridin-3-yl)pyrazolo[5,1-b]thiazole-7-carboxamide] and `Cc1ncc(NC(=O)NCCN2CCCC2(C)C)cc1NC(=O)c1cnn2cc(-c3cnn(C)c3)sc12` [Example 38, N-(5-(3-(2-(2,2-dimethylpyrrolidin-1-yl)ethyl)ureido)-2-methyl-pyridin-3-yl)-2-(1-methyl-1H-pyrazol-4-yl)pyrazolo[5,1-b]thiazole-7-carboxamide] cannot be ordered by IC50: > 7.5 µM for the first, > 7.5 µM for the second.

First: Cc1ncc(NC(=O)CN2CC(C)(C)C2)cc1NC(=O)c1cnn2cc(-c3cnn4c3OCCC4)sc12 [Example 39, 2-(6,7-dihydro-5H-pyrazolo[5,1-b][1,3]oxazin-3-yl)-N-(5-(2-(3,3-dimethylazetidin-1-yl)acetamido)-2-methylpyridin-3-yl)pyrazolo[5,1-b]thiazole-7-carboxamide]
Second: Cc1ncc(NC(=O)CN2CCC23CCC3)cc1NC(=O)c1cnn2cc(-c3cnn4c3OCCC4)sc12 [Example 408, N-(5-(2-(1-azaspiro[3.3]heptan-1-yl)acetamido)-2-methylpyridin-3-yl)-2-(6,7-dihydro-5H-pyrazolo[5,1-b][1,3]oxazin-3-yl)pyrazolo[5,1-b]thiazole-7-carboxamide]
The IC50 of the first is lower: 2.04 µM for the first, > 7.5 µM for the second.

Work on `COc1ccncc1-c1cn2ncc(C(=O)Nc3cc(NC(=O)CN4CC(C)(C)C4)cnc3C)c2s1` [Example 40, N-(5-(2-(3,3-dimethylazetidin-1-yl)acetamido)-2-methylpyridin-3-yl)-2-(4-methoxypyridin-3-yl)pyrazolo[5,1-b]thiazole-7-carboxamide] yielded an IC50 of 6.18 µM.
